According to ChEMBL document CHEMBL1131731, “Synthesis and evaluation of hapalosin and analogs as MDR-reversing agents” (Bioorg Med Chem Lett, 1999):

Target: not listed separately
Assay: Evaluated for cytotoxicity using P388/VMDRC.04 cells (a subline of P388 murine leukemia cells expressing human recombinant human P-glycoprotein) in the absence of 10 nM vincristine
Conditions: not given
For CCCCCCC[C@H]1OC(=O)C[C@@H](OCOC)[C@H](Cc2ccccc2)N(C)C(=O)[C@H](C(C)C)OC(=O)[C@H]1C, the IC50 was 34.9 µM.
With CCCCCCC[C@@H](O)[C@H](C)C(=O)OC the IC50 was > 100 µM.
In the case of CCCC[C@H]1OC(=O)C[C@H](OCOC)[C@H](Cc2ccccc2)N(C)C(=O)COC(=O)[C@H]1C, the IC50 is reported as > 100 µM.
For CC(C)[C@@H]1OC(=O)[C@@H](C)COC(=O)C[C@@H](O)[C@H](Cc2ccccc2)N(C)C1=O, the IC50 was > 100 µM.

Target: ATP-dependent translocase ABCB1 (P-glycoprotein) (Homo sapiens, UniProt P08183)
Sequence (P08183 whole entry): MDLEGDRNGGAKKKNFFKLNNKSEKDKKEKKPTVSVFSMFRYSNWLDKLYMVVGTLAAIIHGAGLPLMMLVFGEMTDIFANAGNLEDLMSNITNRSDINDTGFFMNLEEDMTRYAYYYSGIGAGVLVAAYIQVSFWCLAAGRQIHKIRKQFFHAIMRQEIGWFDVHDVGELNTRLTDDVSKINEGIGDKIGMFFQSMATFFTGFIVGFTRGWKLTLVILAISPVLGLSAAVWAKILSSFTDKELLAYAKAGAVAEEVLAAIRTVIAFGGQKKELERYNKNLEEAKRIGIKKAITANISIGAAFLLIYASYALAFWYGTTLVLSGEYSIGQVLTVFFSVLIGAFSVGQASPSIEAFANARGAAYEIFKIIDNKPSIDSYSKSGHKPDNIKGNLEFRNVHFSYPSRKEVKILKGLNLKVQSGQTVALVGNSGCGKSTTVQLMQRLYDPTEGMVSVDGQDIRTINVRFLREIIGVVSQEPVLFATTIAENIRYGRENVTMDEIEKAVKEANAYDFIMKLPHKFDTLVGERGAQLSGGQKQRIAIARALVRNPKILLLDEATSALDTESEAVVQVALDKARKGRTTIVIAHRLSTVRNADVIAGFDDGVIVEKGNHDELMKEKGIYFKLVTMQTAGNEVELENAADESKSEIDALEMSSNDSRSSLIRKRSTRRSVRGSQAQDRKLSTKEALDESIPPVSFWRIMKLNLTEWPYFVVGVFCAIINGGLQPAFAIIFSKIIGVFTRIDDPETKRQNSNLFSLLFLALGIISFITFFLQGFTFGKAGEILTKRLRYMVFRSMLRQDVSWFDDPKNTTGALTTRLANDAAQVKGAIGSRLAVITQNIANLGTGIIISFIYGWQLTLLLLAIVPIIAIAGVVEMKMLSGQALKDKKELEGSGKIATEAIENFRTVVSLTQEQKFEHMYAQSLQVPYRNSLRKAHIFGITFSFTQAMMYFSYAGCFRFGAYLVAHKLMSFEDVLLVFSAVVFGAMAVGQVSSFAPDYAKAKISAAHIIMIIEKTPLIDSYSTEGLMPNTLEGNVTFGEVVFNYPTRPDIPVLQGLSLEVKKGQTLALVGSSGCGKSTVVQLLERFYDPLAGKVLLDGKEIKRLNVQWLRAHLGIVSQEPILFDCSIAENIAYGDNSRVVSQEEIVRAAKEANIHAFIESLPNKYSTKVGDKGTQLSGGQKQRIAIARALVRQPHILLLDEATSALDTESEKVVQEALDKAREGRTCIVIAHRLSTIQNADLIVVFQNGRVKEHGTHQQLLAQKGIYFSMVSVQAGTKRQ
Assay: (§1) Ratio of IC50 of cytotoxicity to the IC50 of MDR- reversal for P388/VMDRC.04 cells
Type: functional, cell-based
Conditions: mouse, P388/VMDRC.04 cells
In the case of CCCCCCC[C@H]1OC(=O)C[C@H](O)[C@H](Cc2ccccc2)N(C)C(=O)[C@H](C(C)C)OC(=O)[C@H]1C [listing 1 of 2 here], the selectivity ratio is reported as 7.4.
CCCCCCC[C@H]1OC(=O)C[C@@H](OCOC)[C@H](Cc2ccccc2)N(C)C(=O)[C@H](C(C)C)OC(=O)[C@H]1C gave a selectivity ratio of 5.7.
CCCCCCC[C@H]1OC(=O)C[C@@H](O)[C@H](Cc2ccccc2)N(C)C(=O)COC(=O)[C@H]1C gave a selectivity ratio of 3.8.
For COCO[C@H]1CC(=O)O[C@H](C)[C@H](C)C(=O)OCC(=O)N(C)[C@H]1Cc1ccccc1, the selectivity ratio was > 2.3.
With CCCCCCC[C@H]1OC(=O)C[C@@H](OCOC)[C@H](Cc2ccccc2)N(C)C(=O)[C@H](C)OC(=O)[C@H]1C the selectivity ratio was 3.2.
COC(=O)C[C@@H](O)[C@H](Cc1ccccc1)N(C)C(=O)OCc1ccccc1 gave a selectivity ratio of 5.2.
With CCCCCCC[C@H]1OC(=O)C[C@@H](OCOC)[C@H](Cc2ccccc2)N(C)C(=O)COC(=O)[C@H]1C the selectivity ratio was 6.5.
With CCCCCCC[C@H]1OC(=O)C[C@@H](O)[C@H](Cc2ccccc2)N(C)C(=O)[C@H](C(C)C)OC(=O)[C@H]1C [HAPALOSIN] the selectivity ratio was 3.
For COCO[C@@H]1CC(=O)O[C@H](C)[C@H](C)C(=O)O[C@@H](C(C)C)C(=O)N(C)[C@H]1Cc1ccccc1, the selectivity ratio was > 10.
For CCCC[C@H]1OC(=O)C[C@H](O)[C@H](Cc2ccccc2)N(C)C(=O)COC(=O)[C@H]1C, the selectivity ratio was > 4.4.
Work on CCCCCCC[C@@H]1CC(=O)O[C@@H](C(C)C)C(=O)N(C)[C@@H](Cc2ccccc2)[C@H](OCOC)CC(=O)O1 yielded a selectivity ratio of 5.7.
COCO[C@H](CC(=O)OC)[C@H](Cc1ccccc1)N(C)C(=O)OCc1ccccc1 gave a selectivity ratio of 5.7.
CCCCCCC[C@H]1OC(=O)C[C@H](OCOC)[C@H](Cc2ccccc2)N(C)C(=O)[C@H](C(C)C)OC(=O)[C@H]1C (stereo in doubt; 14) showed a selectivity ratio of 7.5.
Work on CCCCCCC[C@H]1OC(=O)C[C@H](OCOC)[C@H](Cc2ccccc2)N(C)C(=O)C(C)(C)OC(=O)[C@H]1C yielded a selectivity ratio of 3.5.
For CCCCCCC[C@H]1OC(=O)C[C@H](O)[C@H](Cc2ccccc2)N(C)C(=O)C(C)(C)OC(=O)[C@H]1C, the selectivity ratio was 6.6.
With COCO[C@@H]1CC(=O)OC[C@H](C)C(=O)O[C@@H](C(C)C)C(=O)N(C)[C@H]1Cc1ccccc1 the selectivity ratio was > 15.9.
CCCCCCC[C@H]1OC(=O)C[C@H](O)[C@H](Cc2ccccc2)N(C)C(=O)[C@H](C(C)C)OC(=O)[C@H]1C [listing 2 of 2 here] showed a selectivity ratio of 5.4.
With CCCC[C@H]1OC(=O)C[C@H](OCOC)[C@H](Cc2ccccc2)N(C)C(=O)COC(=O)[C@H]1C the selectivity ratio was > 8.5.
Compound CCCCCCC[C@@H]1CC(=O)O[C@@H](C(C)C)C(=O)N(C)[C@@H](Cc2ccccc2)[C@H](O)CC(=O)O1 has a selectivity ratio of 3.8.
In the case of CCCCCCC[C@@H](O)[C@H](C)C(=O)O[C@H](C(=O)OC)C(C)C, the selectivity ratio is reported as > 5.2.
In the case of CC(C)[C@@H]1OC(=O)[C@@H](C)[C@@H](C)OC(=O)C[C@@H](O)[C@H](Cc2ccccc2)N(C)C1=O, the selectivity ratio is reported as > 9.
For CC(C)[C@@H]1OC(=O)[C@@H](C)COC(=O)C[C@@H](O)[C@H](Cc2ccccc2)N(C)C1=O, the selectivity ratio was > 7.5.
CCCCCCC[C@H]1OC(=O)C[C@@H](O)[C@H](Cc2ccccc2)N(C)C(=O)[C@H](C)OC(=O)[C@H]1C showed a selectivity ratio of 4.3.
Work on CCCCCCC[C@H]1OC(=O)CC[C@H](Cc2ccccc2)N(C)C(=O)[C@H](C(C)C)OC(=O)[C@H]1C yielded a selectivity ratio of 5.6.

Target: ATP-dependent translocase ABCB1 (Homo sapiens, UniProt P08183)
Sequence (P08183 whole entry): as above
Assay: as §1
Type: functional, cell-based
Conditions: mouse
In the case of CCCCCCC[C@H]1OC(=O)C[C@H](OCOC)[C@H](Cc2ccccc2)N(C)C(=O)[C@H](C(C)C)OC(=O)[C@H]1C (stereo in doubt; 22), the Ratio is reported as 6.2.
